# Data taken from patent US20250024870A1, “NATURAL SUGAR-FREE SYRUP, AND PRODUCTION METHOD THEREOF” (CJ CHEILJEDANG CORPORATION, priority 2021, published 2025).
# Experiments:
# Format in all cases: cell-based
# Fungi (Asp. niger) [1] = assay: Microbial challenge test (MCT) in sucrose-zero vanilla syrup, fungi; conditions: for fungi count: single concentration as printed in the row; for fungi count, Max.: Max. concentration of agent; for fungi count, Min.: Min. concentration of agent
# Description: (§1) Subsequently, the microbial challenge test (MCT) was conducted in the following order. The experiment was applied to the vanilla syrup, which is the representative among the sucrose syrup, the vanilla syrup, and the red grapefruit syrup, and the applied strains and analysis conditions are shown in Table 14.
# (§2) The microbial challenge test (MCT) experiment conditions are as follows: 1) prepare a sucrose-zero vanilla syrup; 2) prepare general bacteria/fungi/spores that have completed proliferation; 3) inject 10^3 cfu/ml of bacteria into a sterilized glass container (100 ml); 4) fill 3) with sucrose-zero vanilla syrup at the filling temperature (80° C. or higher); 5) let it stand after cooling; 6) one day after the cooling of the stationary sample was completed, culture was performed on a weekly basis; and 7) verify the trend of bacterial proliferation or decline for each natural antibacterial agent for 4 weeks.
# Spores (B. subtilis) [2] = assay: Minimum inhibitory concentration (MIC), paper disc diffusion method, spores; conditions: legend not given
# Description: (§3) [table] The minimum inhibitory concentration (MIC) was conducted to confirm the antibacterial activity of each antibacterial agent and the minimum concentration showing antibacterial activity against the target strain, and the paper disc diffusion method was used as the experimental method. […] It was confirmed that if the bacteria had antibacterial activity, the proliferation of bacteria was inhibited as a clear zone was created around the paper.
# Spores (B. subtilis) [3] = assay: Microbial challenge test (MCT) in sucrose-zero vanilla syrup, spores; conditions: for spores count: single concentration as printed in the row; for spores count, Max.: Max. concentration of agent; for spores count, Min.: Min. concentration of agent
# Description: as §1, §2
# [4] = test system: General bacteria, bacteria derived from flavor syrup; assay: Microbial challenge test (MCT) in sucrose-zero vanilla syrup, general bacteria; conditions: for general bacteria count: single concentration as printed in the row; for general bacteria count, Max.: Max. concentration of agent; for general bacteria count, Min.: Min. concentration of agent
# Description: as §1, §2
# Fungi (Asp. niger) [5] = assay: Minimum inhibitory concentration (MIC), paper disc diffusion method, fungi; conditions: legend not given
# Description: as §3
# [6] = test system: General bacteria (T.A.B), bacteria derived from flavor syrup; assay: Minimum inhibitory concentration (MIC), paper disc diffusion method, general bacteria; conditions: legend not given
# Description: as §3
# [7] = immediately after inoculation of target bacteria
compound,measurement,setting,value
"C/C=C/C=C/C(=O)[O-].[K+] [Potassium sorbate, reference compound]",fungi count,Fungi (Asp. niger) [1]; after 1 week,63
same,fungi count,Fungi (Asp. niger) [1]; after 2 weeks,66
same,fungi count,Fungi (Asp. niger) [1]; after 3 weeks,60
same,fungi count,Fungi (Asp. niger) [1]; after 4 weeks,58
same,fungi count,Fungi (Asp. niger) [1]; [7],68
same,"Antibacterial activity (clear zone), spores",Spores (B. subtilis) [2]; 300 ppm,∘
same,"Antibacterial activity (clear zone), spores",Spores (B. subtilis) [2]; 400 ppm,∘
same,"Antibacterial activity (clear zone), spores",Spores (B. subtilis) [2]; 500 ppm,∘
same,"Antibacterial activity (clear zone), spores","Spores (B. subtilis) [2]; 1,000 ppm",∘
same,spores count,Spores (B. subtilis) [3]; after 1 week,873
same,spores count,Spores (B. subtilis) [3]; after 2 weeks,876
same,spores count,Spores (B. subtilis) [3]; after 3 weeks,850
same,spores count,Spores (B. subtilis) [3]; after 4 weeks,860
same,spores count,Spores (B. subtilis) [3]; [7],880
same,general bacteria count,[4]; after 1 week,93
same,general bacteria count,[4]; after 2 weeks,83
same,general bacteria count,[4]; after 3 weeks,80
same,general bacteria count,[4]; after 4 weeks,78
same,general bacteria count,[4]; [7],98
same,"Antibacterial activity (clear zone), fungi",Fungi (Asp. niger) [5]; 300 ppm,∘
same,"Antibacterial activity (clear zone), fungi",Fungi (Asp. niger) [5]; 400 ppm,∘
same,"Antibacterial activity (clear zone), fungi",Fungi (Asp. niger) [5]; 500 ppm,∘
same,"Antibacterial activity (clear zone), fungi","Fungi (Asp. niger) [5]; 1,000 ppm",∘
same,"Antibacterial activity (clear zone), general bacteria (T.A.B)",[6]; 300 ppm,∘
same,"Antibacterial activity (clear zone), general bacteria (T.A.B)",[6]; 400 ppm,∘
same,"Antibacterial activity (clear zone), general bacteria (T.A.B)",[6]; 500 ppm,∘
same,"Antibacterial activity (clear zone), general bacteria (T.A.B)","[6]; 1,000 ppm",∘
E-polylisine [E-polylysine],"fungi count, Max.",Fungi (Asp. niger) [1]; after 1 week,135
same,"fungi count, Min.",Fungi (Asp. niger) [1]; after 1 week,147
same,"fungi count, Max.",Fungi (Asp. niger) [1]; after 2 weeks,130
same,"fungi count, Min.",Fungi (Asp. niger) [1]; after 2 weeks,137
same,"fungi count, Max.",Fungi (Asp. niger) [1]; after 3 weeks,128
same,"fungi count, Min.",Fungi (Asp. niger) [1]; after 3 weeks,130
same,"fungi count, Max.",Fungi (Asp. niger) [1]; after 4 weeks,125
same,"fungi count, Min.",Fungi (Asp. niger) [1]; after 4 weeks,128
same,"fungi count, Max.",Fungi (Asp. niger) [1]; [7],138
same,"fungi count, Min.",Fungi (Asp. niger) [1]; [7],150
same,"Antibacterial activity (clear zone), spores",Spores (B. subtilis) [2]; 400 ppm,∘
same,"Antibacterial activity (clear zone), spores",Spores (B. subtilis) [2]; 500 ppm,∘
same,"Antibacterial activity (clear zone), spores","Spores (B. subtilis) [2]; 1,000 ppm",∘
same,"spores count, Max.",Spores (B. subtilis) [3]; after 1 week,720
same,"spores count, Min.",Spores (B. subtilis) [3]; after 1 week,870
same,"spores count, Max.",Spores (B. subtilis) [3]; after 2 weeks,773
same,"spores count, Min.",Spores (B. subtilis) [3]; after 2 weeks,850
same,"spores count, Max.",Spores (B. subtilis) [3]; after 3 weeks,780
same,"spores count, Min.",Spores (B. subtilis) [3]; after 3 weeks,800
same,"spores count, Max.",Spores (B. subtilis) [3]; after 4 weeks,720
same,"spores count, Min.",Spores (B. subtilis) [3]; after 4 weeks,830
same,"spores count, Max.",Spores (B. subtilis) [3]; [7],720
same,"spores count, Min.",Spores (B. subtilis) [3]; [7],880
same,"general bacteria count, Max.",[4]; after 1 week,126
same,"general bacteria count, Min.",[4]; after 1 week,129
same,"general bacteria count, Max.",[4]; after 2 weeks,115
same,"general bacteria count, Min.",[4]; after 2 weeks,120
same,"general bacteria count, Max.",[4]; after 3 weeks,110
same,"general bacteria count, Min.",[4]; after 3 weeks,120
same,"general bacteria count, Max.",[4]; after 4 weeks,108
same,"general bacteria count, Min.",[4]; after 4 weeks,110
same,"general bacteria count, Max.",[4]; [7],129
same,"general bacteria count, Min.",[4]; [7],132
same,"Antibacterial activity (clear zone), fungi",Fungi (Asp. niger) [5]; 400 ppm,∘
same,"Antibacterial activity (clear zone), fungi",Fungi (Asp. niger) [5]; 500 ppm,∘
same,"Antibacterial activity (clear zone), fungi","Fungi (Asp. niger) [5]; 1,000 ppm",∘
same,"Antibacterial activity (clear zone), general bacteria (T.A.B)",[6]; 200 ppm,∘
same,"Antibacterial activity (clear zone), general bacteria (T.A.B)",[6]; 300 ppm,∘
same,"Antibacterial activity (clear zone), general bacteria (T.A.B)",[6]; 400 ppm,∘
same,"Antibacterial activity (clear zone), general bacteria (T.A.B)",[6]; 500 ppm,∘
same,"Antibacterial activity (clear zone), general bacteria (T.A.B)","[6]; 1,000 ppm",∘
